The subject of this experiment is hippocampal and cortical neurons carrying Mfn2 T105M fl/st. Description: Hippocampal and cortical neurons with induced Mfn2 T105M. Particulars: Mfn2 T105M induced by adeno-Cre; 1 μM for 24 hours. In kind it is cell-based, mouse. On the procedure:
Finally, to test the efficacy of fusion promotion by conformational manipulation in a model of a naturally-occurring human CMT2A mutation, hippocampal and cortical neurons were cultured from mouse pups carrying the conditional Mfn2 T105M fl/st expression allele.
Hippocampal and cortical neurons were prepared from individual P0-P1 mouse pups using a modification of methods described for rat neuronal culture (Mennerick et al., 1995, J Neurophysiol, 73:320-332). Mouse pups were genotyped after the fact to determine presence or absence of the MFN2*T105M transgene; neurons derived from mice lacking the transgene were designated as normal controls. […] Immunoblot of Mfn2 expression in T105M fl/st cortical neurons 72 h after adeno-Cre or adeno-β-gal (Ctrl) is shown in FIG. 16B with quantitative data to the right (n=4). […]
Merged live confocal images of cultured neurons without (no Cre) and with (+Cre) Mfn2 T105M induction, and in Mfn2 T105M-induced neurons 24 h after addition of 1 μM TAT-367-384Gly are shown in FIG. 16C. […] Quantitative data are provided in FIG. 16E; each point is result from one of 3 independently-established Mfn2 T105M neuronal cultures, each with 3 biological replicates of ˜20 neurons. *=P<0.01 vs no Cre; #=P<0.01 vs T105M+Cre.

Ends that are not written are not given here.

Experimental findings from US10578610B2, “Peptide regulators of mitochondrial fusion and methods of use” (priority 2016, dated 2020) are described below.

Regarding “QIAEAVRGIMDSLHMAARGGYGRKKRRQRRR [TAT-367-384Gly]”, the “neuronal mitochondrial dysmorphology with fragmentation, partial depolarization and clumping” value is listed as “largely reversed these abnormalities”.
